# Legend:
# Human alpha-thrombin = biological target: T1, Human alpha-thrombin (Homo sapiens, UniProt P00734); assay: Thrombin counterscreen for selectivity, fluorogenic substrate assay; assay type: biochemical; conditions: Human alpha-thrombin 12.5 nM, Boc-Val-Pro-Arg-AMC 20 μM, 10 min preincubation
# T1 construct: Human alpha-thrombin (Enzyme Research Labs); purchased Enzyme Research Labs
# Description: Counterscreens for Selectivity:
# In a 96-well white opaque plate, 80 μl of assay buffer was added to each well. Test compounds were added, and serially diluted as above, to generate a concentration range of approximately 1-100 μM. […] 80 μl of this enzyme solution was added to the assay wells. The enzyme/compound mixtures were incubated for 10 minutes at room temperature. Fluorogenic substrate (Boc-Val-Pro-Arg-7-amido-4-methylcoumarin; Sigma) was added to assay wells at a final concentration of 20 μM. The assay plate was spun for 1 minute at 1500 g and then read at 37° C. in a SpectraMax M2 plate reader (λex=380 nm and λem=460 nm). Activity was quantified as the rate of change in fluorescence, which corresponds to the rate of substrate cleavage.
# Human FXIIa = biological target: T2, Human FXIIa (Homo sapiens, UniProt P00748); assay: Factor XIIa (FXIIa) inhibitory activity, chromogenic substrate assay; assay type: biochemical; conditions: Human FXIIa 12.5 nM, Pefachrome XIIa 400 μM, 10 min preincubation
# T2 construct: active coagulation factor XII (FXIIa); purchased Enzyme Research Labs
# T2 sequence (P00748 373-615 limits assumed): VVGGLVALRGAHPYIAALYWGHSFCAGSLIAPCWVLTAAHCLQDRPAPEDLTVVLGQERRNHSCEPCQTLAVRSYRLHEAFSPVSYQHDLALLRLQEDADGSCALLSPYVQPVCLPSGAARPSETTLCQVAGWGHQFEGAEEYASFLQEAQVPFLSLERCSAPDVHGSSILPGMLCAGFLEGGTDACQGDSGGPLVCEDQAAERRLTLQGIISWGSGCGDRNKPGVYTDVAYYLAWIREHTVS
# T2 sequence (P00748 20-372 partner limits assumed): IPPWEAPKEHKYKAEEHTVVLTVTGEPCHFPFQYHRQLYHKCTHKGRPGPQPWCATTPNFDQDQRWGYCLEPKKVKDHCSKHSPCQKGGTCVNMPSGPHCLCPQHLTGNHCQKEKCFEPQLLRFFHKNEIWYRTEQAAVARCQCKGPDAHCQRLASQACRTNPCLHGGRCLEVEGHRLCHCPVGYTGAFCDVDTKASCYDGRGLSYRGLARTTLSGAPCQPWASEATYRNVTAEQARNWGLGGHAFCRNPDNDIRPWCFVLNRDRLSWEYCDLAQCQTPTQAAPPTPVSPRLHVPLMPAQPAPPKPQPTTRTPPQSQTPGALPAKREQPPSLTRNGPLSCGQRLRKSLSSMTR
# Summary of the method: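 Activity was taken as the rate of absorbance increase at 405 nm, read at 37 °C after adding 400 μM (final) Pefachrome XIIa. Compounds spanning roughly 1–100 μM were first preincubated with enzyme for 10 min at room temperature in HEPES pH 7.4-buffered HBSS/TBS-Tween.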
SMILES,IC50 (Human alpha-thrombin) [µM],IC50 (Human FXIIa) [µM]
"Nc1nn(C(=O)[C@@H]2CCNc3ccccc32)c2c1C[C@H](O)CC2 (single isomer, unassigned) [Example 168, ((5R*)-3-amino-5-hydroxy-4,5,6,7-tetrahydroindazol-1-yl)((4R*)-1,2,3,4-tetrahydroquinolin-4-yl)methanone]",> 100,> 100
"Cc1cccc2c1NCC[C@@H]2C(=O)n1nc2c(c1N)CC[C@H](O)C2 (single isomer, unassigned) [Example 198, ((6S*)-3-amino-6-hydroxy-4,5,6,7-tetrahydroindazol-2-yl)((4S*)-8-methyl-1,2,3,4-tetrahydroquinolin-4-yl)methanone]",> 100,0.1
"Nc1c2c(nn1C(=O)[C@H]1CCNc3ccc(F)cc31)CC[C@H](N)C2 (stereo in doubt) [Example 192, ((5S*)-3,5-diamino-4,5,6,7-tetrahydroindazol-2-yl)((4S*)-6-fluoro-1,2,3,4-tetrahydroquinolin-4-yl)methanone]",> 90,0.08
"Nc1c2c(nn1C(=O)C1CCNc3ccc(F)cc31)CCC(NC(=O)OCc1ccccc1)C2 (single isomer, unassigned) [Example 190, Benzyl N-[(5S*)-3-amino-2-[(6-fluoro-1,2,3,4-tetrahydroquinolin-4-yl)carbonyl]-4,5,6,7-tetrahydro-2H-indazol-5-yl]carbamate]",> 60,0.4
"CCc1csc(C)c1C(=O)n1nc2c(c1N)CCCC2 (single isomer, unassigned) [Example 18, (3-Amino-4,5,6,7-tetrahydroindazol-2-yl)(4-ethyl-2-methylthiophen-3-yl)methanone]",> 100,5
"Nc1c2c(nn1C(=O)[C@H]1CCNc3ccc(F)cc31)CC[C@@H](O)C2 (single isomer, unassigned) [Example 129, ((5R*)-3-amino-5-hydroxy-4,5,6,7-tetrahydro-2H-indazol-2-yl)(4(S*)-6-fluoro-1,2,3,4-tetrahydroquinolin-4-yl)methanone]",> 150,0.05
"Nc1c2c(nn1C(=O)[C@@H]1CCCc3[nH]c(Cl)cc31)CC[C@H](O)C2 (single isomer, unassigned) [Example 128, ((5S*)-3-amino-5-hydroxy-4,5,6,7-tetrahydroindazol-2-yl)((4R*)-2-chloro-4,5,6,7-tetrahydro-1H-indol-4-yl)methanone]",> 65,30
Cc1cc2c(C(=O)n3nc4c(c3N)CC(O)CC4)cccc2[nH]1 (centres unmarked) [Example 161],> 100,0.06
"Nc1nn(C(=O)c2cccc3[nH]c(Cl)cc23)c2c1CCCC2 (single isomer, unassigned) [Example 56, (3-amino-4,5,6,7-tetrahydroindazol-1-yl)(2-chloro-1H-indol-4-yl)methanone]",> 100,29

# Further lines, results first:
IC50 (Human alpha-thrombin) [µM],IC50 (Human FXIIa) [µM],SMILES
> 50,> 50,"Cn1ccc2c(C(=O)n3nc(N)c4c3CCCC4)cccc21 (single isomer, unassigned) [Example 8, (3-amino-4,5,6,7-tetrahydroindazol-1-yl)(1-methyl-1H-indol-4-yl)methanone]"
77,5.6,"Nc1c2c(nn1C(=O)C1OCCc3ccccc31)CCCC2 (single isomer, unassigned) [Example 13, (3-Amino-4,5,6,7-tetrahydroindazol-2-yl)(isochroman-1-yl)methanone]"
68,0.25,"COc1ccc(C(=O)n2nc3c(c2N)CCCC3)c2cc[nH]c12 [Example 80, (3-amino-4,5,6,7-tetrahydroindazol-2-yl)(7-methoxy-1H-indol-4-yl)methanone]"
9,0.02,"Cc1cc2c(C(=O)n3nc4c(c3N)CC(F)(F)CC4)cccc2[nH]1 [Example 121, (3-amino-5,5-difluoro-4,5,6,7-tetrahydro-2H-indazol-2-yl)(2-methyl-1H-indol-4-yl)methanone]"

# — US10538512B2, “Aminoacylindazole immunomodulators for treatment of autoimmune diseases” (The Rockefeller University, priority 2016, dated 2020)
